According to ChEMBL document CHEMBL1134477, “Combinatorial lead optimization of a neuropeptide FF antagonist” (J Med Chem, 2001):
Where a SMILES comes first, the peptide text is derived from it. The star is where a group is joined. Dansyl = CN(C)c1cccc2c(S(=O)(=O)*)cccc12; Desaminotyrosyl = O=C(CCc1ccc(O)cc1)*

Assays:
[1] = K' value on the basis of IAM (immobilized artificial membrane) retention; assay type: functional
[2] = biological target: Neuropeptide FF receptor 2 (Rattus norvegicus, UniProt Q9EQD2); assay: Binding affinity towards NPFF receptor was measured by the displacement of [125I]-YLFQPQRF-NH2
Sequence of Neuropeptide FF receptor 2 (Q9EQD2 whole entry): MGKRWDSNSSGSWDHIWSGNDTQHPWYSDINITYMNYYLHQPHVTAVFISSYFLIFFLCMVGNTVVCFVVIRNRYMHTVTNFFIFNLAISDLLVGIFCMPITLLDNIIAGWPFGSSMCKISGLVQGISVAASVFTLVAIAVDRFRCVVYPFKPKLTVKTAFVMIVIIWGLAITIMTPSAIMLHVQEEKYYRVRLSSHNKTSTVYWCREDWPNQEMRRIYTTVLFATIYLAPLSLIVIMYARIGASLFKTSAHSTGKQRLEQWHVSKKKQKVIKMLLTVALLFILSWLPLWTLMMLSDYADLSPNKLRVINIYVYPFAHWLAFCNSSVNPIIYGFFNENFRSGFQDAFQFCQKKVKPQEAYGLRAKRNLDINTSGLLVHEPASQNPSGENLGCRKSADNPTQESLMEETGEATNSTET

SMILES	kIAM' [1]	Ki [2] [nM]
CN(C)c1cccc2c(S(=O)(=O)N3CCC[C@H]3C(=O)N[C@@H](CCC(N)=O)C(=O)N[C@@H](CCCNC(=N)N)C(N)=O)cccc12 [DANSYLPQRAMIDE]	5.9	13600
CN(C)c1cccc2c(S(=O)(=O)NCC(=O)N[C@@H](CO)C(=O)N[C@@H](CCCN=C(N)N)C(N)=O)cccc12 (Dansyl-Gly-Ser-Arg-NH2)	8	1400
CC(C)C[C@H](NC(=O)[C@H](Cc1ccccc1)NC(=O)CCc1ccc(O)cc1)C(=O)N[C@@H](Cc1ccccc1)C(=O)N[C@@H](CCC(N)=O)C(=O)N1CCC[C@H]1C(=O)N[C@@H](CCC(N)=O)C(=O)N[C@@H](CCCNC(=N)N)C(N)=O (Desaminotyrosyl-FLFQPQR-NH2)	–	840
